Tests used:
rats = experiment: Pretreatment with lipid emulsion: cocaine toxicity in rats; format: in vivo, rat; conditions: control (saline), cocaine iv 5 mg/kg/min
Method: Because of the significant potential benefit, experiments were performed to test an infusion of a lipid emulsion as a method of treating cocaine toxicity. Anesthetized, ventilated rats were infused with a lipid emulsion (20% Intralipid® at 10 ml/kg for 2 minutes) and then administered an intravenous infusion of cocaine at 5 mg/kg/min to hypotension (blood pressure is less than 40 mmHg) or asystole (no heartbeat for 5 seconds). […] Thus, pretreatment with a lipid emulsion composition shifts the dose-response of cocaine in much the same way as bupivacaine. This is an expected result given the similar properties and effects between cocaine and bupivacaine. These findings indicate that lipid infusion can be used to treat patients experiencing acute cardiovascular compromise in cocaine overdose.

[1] = octanol:water; P = [organic]/[aqueous]; cited from earlier work
Male Sprague-Dawley rats = experiment: Pretreatment with lipid emulsion: dose-response to bupivacaine induced asystole in rats (protocol 1); format: in vivo, rat
From the text: Studies were undertaken to assess the ability of a lipid emulsion to shift the dose-response to drug-induced asystole (heart stoppage) in rats. Pretreatment with a lipid emulsion increased the dose of bupivacaine (a local anesthetic) required to induce asystole. Racemic bupivacaine hydrochloride was purchased from Sigma (St. Louis, Mo.) while tritiated bupivacaine was purchased from Moravek Biochemicals (Brea, Calif.). Intralipid® was purchased from Baxter Healthcare (Deerfield, Ill.). Male Sprague-Dawley rats weighing between about 250 grams to about 370 grams were used in all experiments.
Animals were first anesthetized in a bell jar with isoflurane to allow intubation, then mechanically ventilated with about 1.75% isoflurane in about 100% oxygen using a Harvard rodent ventilatory model 680 in conjunction with a tidal volume of 3 ml and a starting rate of about 40 breaths per minute. […] Electrocardiogram (BCG) was monitored via three subcutaneous needle electrodes in each rat. […]
All animals were allowed to stabilize for about 15 minutes while arterial blood pressure and ECG were monitored. […]
Immediately following pretreatment, all animals received an infusion of about 0.75% bupivacaine via the internal iliac catheter at a rate of 10 mg/kg/min to an end point of about ten seconds of asystole. […] The cumulative lethal dose of bupivacaine was calculated in mg/kg for all animals. […]

[2] = format: in vivo, rat; conditions: saline pretreatment (group 1); +/- SEM
Method: Immediately following pretreatment, all animals received an infusion of about 0.75% bupivacaine via the internal iliac catheter at a rate of 10 mg/kg/min to an end point of about ten seconds of asystole. Blood was then drawn from the aorta into a heparinized syringe for plasma bupivacaine determinations. The cumulative lethal dose of bupivacaine was calculated in mg/kg for all animals.
Plasma bupivacaine concentrations were determined by high performance liquid chromatograph (HPLC) after the samples had been extracted with hexane. The method of hexane extraction was validated with bupivacaine spiked samples and provided greater than about 95% recovery of bupivacaine from both normal and lipemic plasma. Thus, plasma bupivacaine concentrations reflected total bupivacaine content in both the aqueous and lipid phases of the specimen. […] The drugs were detected at a wavelength of about 215 nm.
Bupivacaine dose and plasma concentrations were analyzed by Kruskal-Wallis one way analysis of variance on ranks. […] Plasma bupivacaine concentration data were parametric and differences in mean values were evaluated. […] The difference in survival of the two groups at 15 mg/kg bupivacaine was further evaluated using a z test of proportions. […]

[3] = Bupivacaine lipid:aqueous partition in a mixture of Intralipid and rat plasma; format: physicochemical
Method: The bupivacaine lipid:aqueous partition coefficient was determined for a mixture of Intralipid® and rat plasma. Blood obtained from rats by direct heart puncture under halothane anesthesia was centrifuged and the plasma was separated. Equal volumes of about 30% Intralipid® and plasma (approximately 2 ml each) were combined and vortexed. Approximately 1.0 μCi of titriated bupivacaine (specific activity 0.81 Ci/mole) was added to the mixture to a final bupivacaine concentration of about 93 μg/ml. This mixture was vortexed again then separated into aliquots of about 1 ml. These aliquots were allowed to sit undisturbed for about one hour at about 38° C., then centrifuged at about 10,000 g for about 10 minutes. High speed centrifugation separated each of these mixtures into a clear aqueous phase (about 0.85 ml) under a lipid phase (about 0.15 ml). The latter comprised a clear layer beneath a very thin white cap. The cap was removed then redissolved in saline to a total volume of about 1 ml. Aliquots of this solution and the aqueous plasma phase were then analyzed for tritiated bupivacaine content by liquid scintillation counting. The bupivacaine lipid:aqueous partition coefficient was given by the ratio of bupivacaine in the combined lipid phase (following correction for saline dilution) to the bupivacaine in the aqueous phase. This experiment was performed in triplicate.

[4] = Resuscitation from a toxic bupivacaine dose with lipid emulsion (protocol 2); conditions: male, Sprague-Dawley, rat, in vivo, iv, resuscitation with saline infusion after iv bupivacaine bolus; probit analysis
Method: Bupivacaine dose and plasma concentrations were analyzed by Kruskal-Wallis one way analysis of variance on ranks. Post hoc testing of both data sets was performed by Student-Newman-Keul's method for multiple comparisons (SigmaStat, Jandel Scientific/San Rafael, Calif.). Cumulative bupivacaine dose data were nonparametric and median values were compared by differences of ranks. Plasma bupivacaine concentration data were parametric and differences in mean values were evaluated. Probit analysis (CalcuSyn, Biosoft/Cambridge, England) was used to compare bupivacaine LD50 values in the saline and lipid portions. The difference in survival of the two groups at 15 mg/kg bupivacaine was further evaluated using a z test of proportions. Statistical significance in all experiments was taken as p less than or equal to 0.05.
Experiments were performed to evaluate the ability of a lipid emulsion to resuscitate an animal from a toxic dose of bupivacaine. All animals were anaesthetized, instrumented and stabilized at about 1.75% isoflurane as described in Example 1, and arterial blood pressure and ECG were continuously monitored. […] Survival was scored about 5 minutes after the bupivacaine bolus and required both heart rate greater than about 100 beats per minute and systolic blood pressure greater than about 60 mmHg. […]

With COC(=O)[C@H]1[C@@H](OC(=O)c2ccccc2)C[C@@H]2CC[C@H]1N2C [cocaine] the time to asystole (rats) was 368 ± 27 s and the “mean time to hypotension (40 mmHg)” value (rats; n=8) was 143 ± 22 s.
For Cc1cccc(C)c1NC(=O)C1CCCCN1C (stereo not drawn) [mepivacaine], the logP [1] is listed as 2.04.
With CCCCN1CCCCC1C(=O)Nc1c(C)cccc1C (racemic) [bupivacaine] the “Median bupivacaine lethal dose” value (Male Sprague-Dawley rats; saline pretreatment (group 1), 0.75% bupivacaine 10 mg/kg/min to asystole, n=6) was 17.8 mg/kg, the “lethal bupivacaine dose, lower end of range among all animals” value (Male Sprague-Dawley rats; single animal receiving saline pretreatment) was “about 12.7 mg/kg” and the “mean plasma bupivacaine concentration at the time of asystole” value [2] was 93.3 ± 7.6 µg/mL. The “percent of total bupivacaine dissolved in the lipid phase” value ([3]; equal volumes of about 30% Intralipid and plasma, lipid volume about 15% of total) was “about 75.3%”, the “lipid:aqueous ratio of bupivacaine concentrations” value ([3]; equal volumes of about 30% Intralipid and rat plasma, about 38 °C, about 93 μg/ml, +/- standard error, triplicate) was 11.9+/−1.77 and the LD50 at 5 min [4] was 12.5 mg/kg. For the same compound, the logP [1] was 3.64.
For Nc1nnc(-c2cccc(Cl)c2Cl)c(N)n1 [lamotrigine], the logP [1] is listed as −0.19.
In the case of CC(NC(C)(C)C)C(=O)c1cccc(Cl)c1 (stereo not drawn) [bupropion], the logP [1] is given as 3.47.
In the case of CCCCNc1ccc(C(=O)OCCN(C)C)cc1 [tetracaine], the logP [1] is listed as 3.49.
For CCCN1CCCC[C@H]1C(=O)Nc1c(C)cccc1C [ropivacaine], the logP [1] is given as 3.11.
For COc1ccc([C@@H]2Sc3ccccc3N(CCN(C)C)C(=O)[C@@H]2OC(C)=O)cc1 [diltiazem], the logP [1] is given as 4.53.
